Laboratory results from ChEMBL document CHEMBL1201862, “PubChem BioAssay data set” (2004).
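Interpolation was linear, between the two tested concentrations surrounding the appropriate level; five concentrations were tested over 48 hours in 96-well plates. GI50 = concentration required for 50% inhibition of growth.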 Activity calls are given as the source filed them. Cut-off read from the data, not from the text of the source: active = GI50 up to about 1.1 µM and inactive = higher.

Columns and labels:
Test in all cases: inhibition of tumour cell growth, NCI panel, 48 h
[1] = tested on: LXFL 529
[2] = tested on: SF-268
[3] = tested on: SNB-19
[4] = tested on: SR
[5] = tested on: CCRF-CEM
[6] = tested on: HT-29
[7] = tested on: HOP-62
[8] = tested on: SK-MEL-5
[9] = tested on: NCI-H522
[10] = tested on: MOLT-4
[11] = tested on: LOX IMVI
[12] = tested on: SN12C
[13] = tested on: HL-60
[14] = tested on: SK-MEL-2

Measured: GI50

CC(=O)N(O)Cc1ccccc1
inactive: [1] > 100 µM | [2] > 100 µM | [3] > 100 µM | [4] > 100 µM | [5] > 100 µM | [6] > 100 µM | [7] > 100 µM | [8] > 100 µM | [9] > 100 µM | [10] > 100 µM | [11] > 100 µM | [12] > 100 µM | [13] > 100 µM

CCOC(=O)C(C)(C)Oc1ccc2c(=O)cc(-c3ccc(Cl)cc3)oc2c1
inactive: [1] > 100 µM | [2] > 100 µM | [3] > 100 µM | [4] > 100 µM | [5] > 100 µM | [6] > 100 µM | [7] > 100 µM | [8] > 100 µM | [14] > 100 µM | [10] > 100 µM | [11] > 100 µM | [12] > 100 µM | [13] > 100 µM

COC(=O)C(Cc1nc2ccccc2nc1O)C(=O)C(=O)Nc1ccc([N+](=O)[O-])cc1[N+](=O)[O-] (stereo not given)
inactive: [1] 12.8 µM | [2] 21.5 µM | [3] 29.7 µM | [4] 12 µM | [5] 13.2 µM | [6] 19.4 µM | [7] 24.2 µM | [8] 18.3 µM | [14] 20.7 µM | [9] 6.22 µM | [10] 18.5 µM | [11] 20.9 µM | [12] 19.8 µM | [13] 21.8 µM

Cc1cccc2c1C/C(=C1\CCc3c(C)cccc31)C2=O
inactive: [1] > 100 µM | [2] > 100 µM | [3] > 100 µM | [4] > 100 µM | [5] > 100 µM | [6] > 100 µM | [7] > 100 µM | [8] > 100 µM | [14] > 100 µM | [10] > 100 µM | [11] > 100 µM | [12] > 100 µM | [13] > 100 µM

Cn1c(-c2ccccc2)c/c(=N\NS(C)(=O)=O)c2cc(S(=O)(=O)O)ccc21
inactive: [1] > 100 µM | [2] > 100 µM | [3] > 100 µM | [4] > 100 µM | [5] > 100 µM | [6] > 100 µM | [7] > 100 µM | [8] > 100 µM | [14] > 100 µM | [9] > 100 µM | [10] > 100 µM | [11] > 100 µM | [12] > 100 µM | [13] > 100 µM

CC1=C(c2cc(C(=O)Nc3cccc(C(F)(F)F)c3)ncn2)Sc2ccccc2N1
inactive: [1] > 100 µM | [2] > 100 µM | [3] > 100 µM | [4] > 100 µM | [5] > 100 µM | [6] > 100 µM | [7] > 100 µM | [8] > 100 µM | [14] > 100 µM | [9] > 100 µM | [10] > 100 µM | [12] > 100 µM | [13] > 100 µM

O=S(=O)(c1ccccc1)C(CN1CCCCC1)S(=O)(=O)c1ccccc1
inactive: [1] > 100 µM | [2] > 100 µM | [3] > 100 µM | [4] > 100 µM | [5] > 100 µM | [6] > 100 µM | [7] > 100 µM | [14] > 100 µM | [9] > 100 µM | [10] > 100 µM | [11] > 100 µM | [12] > 100 µM | [13] > 100 µM

O=C(/C=C/c1ccccc1Cl)NC1C=Nc2ccc([N+](=O)[O-])cc2NC1 (stereo not given)
inactive: [1] 43.2 µM | [2] > 100 µM | [3] > 100 µM | [4] 14 µM | [5] 12.7 µM | [7] > 100 µM | [8] > 100 µM | [14] > 100 µM | [9] 22.6 µM | [10] 13.4 µM | [11] 39.4 µM | [12] 98.6 µM | [13] 49.2 µM

CC(=O)[O-].Cc1ncc(CO)c(/C=N/NC(N)=S)c1[O-].[Zn+2]
inactive: [1] > 100 µM | [2] > 100 µM | [3] > 100 µM | [4] > 100 µM | [5] > 100 µM | [6] > 100 µM | [7] > 100 µM | [8] > 100 µM | [14] > 100 µM | [10] > 100 µM | [11] > 100 µM | [12] > 100 µM | [13] > 100 µM

CCCCCCCOc1ccc(/C=C\c2cc[n+](CCCCCCCC[n+]3ccc(/C=C\c4ccc(OCCCCCCC)cc4)cc3)cc2)cc1
inactive: [1] 13.3 µM | [2] 23.8 µM | [3] 7.87 µM | [5] > 100 µM | [6] 13.8 µM | [7] 26.6 µM | [8] 14.6 µM | [14] 17.6 µM | [9] 2.64 µM | [10] 15.2 µM | [11] 25 µM | [12] 20 µM | [13] 4.3 µM

CCC1(O)C(=O)OCc2c1cc1n(c2=O)Cc2cc3cc(OC)c(OC)cc3nc2-1 (stereo not given)
inactive: [1] > 100 µM | [2] 11.4 µM | [3] 16 µM | [4] 2.29 µM | [5] 2.81 µM | [6] > 100 µM | [7] 2.79 µM | [8] 17.5 µM | [9] 8.61 µM | [10] 4.85 µM | [11] 7.19 µM | [12] 5.5 µM | [13] 12 µM
